Assay: In-vitro dissolution test in deionized water
Format: physicochemical
Conditions: room temperature
Method: The total drug dose is about 50 mg dissolved in 1 L of deionized water at the room temperature. In order to obtain the concentration versus time plot, a series of samples (3 mL) are withdrawn at predetermined time points, and the same amount of fresh media is added back to maintain a constant volume (1 L). These withdrawn samples are filtered by 0.22 μm MCE filters, and their concentrations are then determined with a UV spectrophotometer.

Row | SMILES | drug released in 6 hours
1 | CC(C(=O)O)c1ccc(-c2ccccc2)c(F)c1 (centres unmarked) [Flurbiprofen crystal, Flurbiprofen] | 9.5%
2 | CCC(COC(=O)c1cc(OC)c(OC)c(OC)c1)(c1ccccc1)N(C)C (centres unmarked) [Trimebutine crystal, Trimebutine] | 1.18%
